From ChEMBL document CHEMBL4043225, “Identification of potent, nonabsorbable agonists of the calcium-sensing receptor for GI-specific administration” (Bioorg Med Chem Lett, 2017) come the findings set out here.

Data set [1] has as its target T1, Extracellular calcium-sensing receptor (Homo sapiens) (UniProt P41180).
T1 sequence (whole entry): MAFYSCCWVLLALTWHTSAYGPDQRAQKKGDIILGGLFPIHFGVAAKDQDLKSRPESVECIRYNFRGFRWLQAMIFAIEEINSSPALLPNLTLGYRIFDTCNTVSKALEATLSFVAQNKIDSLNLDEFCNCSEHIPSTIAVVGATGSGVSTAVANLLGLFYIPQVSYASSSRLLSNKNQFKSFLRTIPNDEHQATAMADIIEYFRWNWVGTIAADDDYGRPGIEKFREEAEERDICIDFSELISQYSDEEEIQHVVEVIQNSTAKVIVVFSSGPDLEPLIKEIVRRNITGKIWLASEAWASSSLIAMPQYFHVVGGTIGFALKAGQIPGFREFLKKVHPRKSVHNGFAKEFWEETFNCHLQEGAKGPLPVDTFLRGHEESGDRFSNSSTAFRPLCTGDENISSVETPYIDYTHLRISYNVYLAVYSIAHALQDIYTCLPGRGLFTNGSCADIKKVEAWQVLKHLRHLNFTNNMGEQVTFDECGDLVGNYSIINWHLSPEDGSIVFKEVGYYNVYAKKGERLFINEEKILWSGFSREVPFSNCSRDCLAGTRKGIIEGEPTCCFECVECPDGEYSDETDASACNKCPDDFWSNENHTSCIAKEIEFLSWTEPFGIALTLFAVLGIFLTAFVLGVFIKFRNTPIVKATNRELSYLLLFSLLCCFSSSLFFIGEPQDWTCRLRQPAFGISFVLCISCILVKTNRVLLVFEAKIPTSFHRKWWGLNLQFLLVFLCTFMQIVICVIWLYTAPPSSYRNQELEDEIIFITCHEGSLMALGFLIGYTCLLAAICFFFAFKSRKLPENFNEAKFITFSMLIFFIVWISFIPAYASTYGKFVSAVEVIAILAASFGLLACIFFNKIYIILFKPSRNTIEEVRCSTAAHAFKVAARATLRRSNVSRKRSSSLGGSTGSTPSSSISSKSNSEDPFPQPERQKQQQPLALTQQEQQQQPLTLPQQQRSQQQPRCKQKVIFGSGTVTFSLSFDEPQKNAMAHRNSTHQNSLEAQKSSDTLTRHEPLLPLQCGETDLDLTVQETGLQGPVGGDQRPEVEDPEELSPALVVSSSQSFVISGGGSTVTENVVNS
The data set is described as follows: (§1) Agonist activity at human CaSR expressed in HEK293 cells assessed as increase in intracellular calcium mobilization by fluo-4AM dye based FLIPR assay. Format: functional, cell-based. A general note: A change in cytosolic calcium serves as a functional read-out for many receptors and channels.

The target of data set [2] is T2, Extracellular calcium-sensing receptor (Homo sapiens, UniProt P41180).
T2 sequence (P41180 whole entry): T1 sequence (whole entry)
Described as §1. Conditions: read-out: pEC50 (converted). The class given is functional, cell-based.

Data set [3] in a line: Half-life in Sprague-Dawley rat cecal homogenates at 10 uM by LC-MS/MS analysis. The class given is ADME, tissue-based, Caecum.
Data set [4] is described as follows: Cmax in CD rat systemic circulation at 50 mg/kg, po administered via gavage. Format: ADME, organism-based. More on the design: dose 50 mg/kg, route oral.
The nature of data set [5]: Cmax in CD rat portal vein at 50 mg/kg, po administered via gavage. Format: ADME, organism-based. Further details: dose 50 mg/kg, route oral.
A short description of data set [6]: Cmax in CD rat portal vein at 30 mg/kg, po administered via gavage. The class given is ADME, organism-based. More on the design: dose 30 mg/kg, route oral.
Data set [7] is described as follows: Drug recovery in CD rat feces at 30 mg/kg, po administered via gavage measured by LC-MS/MS analysis. The class given is ADME, organism-based. Conditions: read-out: Drug recovery.
A short description of data set [8]: Cmax in CD rat systemic circulation at 30 mg/kg, po administered via gavage. Format: ADME, organism-based. Further details: dose 30 mg/kg, route oral.

As usually defined, the half-life is the time in which the quantity being followed falls by half. A lower half-life goes with rapid decline. The Cmax is the maximum level reached in the sampled fluid or tissue.

Where only a bound is given, the exact number is not on record here.

Turning to `C[C@@H](N[C@H]1CCN(c2ccc(S(=O)(=O)NCCn3cnc(C(=O)O)c3C(=O)O)cc2)C1)c1cccc2ccccc12`, the %max in data set [1] worked out at 127%. In addition, the EC50 in data set [2] was 7.94 nM.

`C[C@@H](N[C@H]1CCN(c2ccc(P(=O)(O)O)cc2)C1)c1cccc2ccccc12`: in data set [1], the %max was 70%. Moreover, the EC50 in data set [2] is 3160 nM.

In turn, `C[C@@H](N[C@H]1CCN(c2ccc(S(N)(=O)=O)cc2)C1)c1cccc2ccccc12` yielded a half-life at 10 µM in data set [3] above 720 min. Further, the %max in data set [1] amounted to 87%. Further, in data set [2], the EC50 is 20 nM.

For `C[C@@H](N[C@H]1CCN(c2ccc(S(=O)(=O)NCC(=O)O)cc2)C1)c1cccc2ccccc12`, the Cmax in data set [4] was determined as 317 ng/mL; in data set [5] it was 1120 ng/mL. The molecule also had a half-life at 10 µM in data set [3] above 720 min. Also, the %max in data set [1] was 83%. Further, the EC50 in data set [2] was 39.8 nM.

Regarding `C[C@@H](N[C@H]1CCN(c2ccc(C(=O)NCCNC(CO)(CO)CO)cc2)C1)c1cccc2ccccc12`, the half-life at 10 µM in data set [3] is 204 min. The %max in data set [1] is 101%. For the same molecule, the EC50 in data set [2] was 7.94 nM.

In the case of `C[C@@H](N[C@H]1CCN(c2ccc(C(=O)N[C@H](CC(=O)O)C(=O)O)cc2)C1)c1cccc2ccccc12`, the half-life at 10 µM in data set [3] is 546 min. The Cmax in data set [6] turned out to be 12 ng/mL; in data set [8], 9 ng/mL. For the same molecule, the %max in data set [1] turned out to be 79%. Moreover, the EC50 in data set [2] was 398 nM. In data set [7], the dose excreted came to 65%.

In the case of `C[C@@H](N[C@H]1CCN(c2ccc(S(=O)(=O)NCCN(C)C)cc2)C1)c1cccc2ccccc12`, in data set [1], the %max was determined as 84%. Further, the EC50 in data set [2] was 12.6 nM.

In the case of `C[C@@H](N[C@H]1CCN(c2ccc(C(=O)NCCn3cnc(C(=O)O)c3C(=O)O)cc2)C1)c1cccc2ccccc12`, the half-life at 10 µM in data set [3] was 468 min. Besides, the values for the Cmax in data set [6] and in data set [8] were 6 ng/mL and below 4 ng/mL, respectively. In addition, in data set [1], the %max amounted to 96%. Moreover, the EC50 in data set [2] is 5.01 nM. Besides, in data set [7], the dose excreted was found to be 54%.

Take `C[C@@H](N[C@H]1CCN(c2ccc(S(=O)(=O)NC(=O)CC(=O)O)cc2)C1)c1cccc2ccccc12`: in data set [1], the %max came to 79%. Moreover, the EC50 in data set [2] was 1580 nM.

Turning to `C[C@@H](N[C@H]1CCN(c2ccc(C(=O)NC(CO)(CO)CO)cc2)C1)c1cccc2ccccc12`, the half-life at 10 µM in data set [3] was above 720 min. For the same molecule, the %max in data set [1] was determined as 80%. The EC50 in data set [2] is 39.8 nM.

In data set [3], `C[C@@H](N[C@H]1CCN(c2ccc(C(=O)NCCCCNC(CO)(CO)CO)cc2)C1)c1cccc2ccccc12` showed a half-life at 10 µM of 480 min. Further, the values for the Cmax in data set [6] and in data set [8] were 540 ng/mL and 440 ng/mL, respectively. Besides, in data set [1], the %max was 92%. Further, in data set [2], the EC50 is 15.8 nM.

`C[C@@H](N[C@H]1CCN(c2ccc(C(=O)N[C@H](CCCCN)C(=O)O)cc2)C1)c1cccc2ccccc12` had a half-life at 10 µM in data set [3] of 258 min. Moreover, the %max in data set [1] came to 96%. Further, in data set [2], the EC50 was 100 nM.

Turning to `C[C@@H](N[C@H]1CCN(c2ccc(C(=O)NCC[N+](C)(C)C)cc2)C1)c1cccc2ccccc12.[Cl-]`, the maximum concentration (Cmax) in data set [4] amounted to 154 ng/mL; in data set [5] it was 164 ng/mL. Besides, the half-life at 10 µM in data set [3] was above 720 min. Besides, the %max in data set [1] worked out at 83%. In addition, the EC50 in data set [2] was 126 nM.

Regarding `C[C@@H](N[C@H]1CCN(c2ccc(C(=O)NCC(=O)O)cc2)C1)c1cccc2ccccc12`, in data set [1], the %max came out at 69%. Besides, the EC50 in data set [2] is 79.4 nM.

With `C[C@@H](N[C@H]1CCN(c2ccc(C(=O)NCCN)cc2)C1)c1cccc2ccccc12`, the %max in data set [1] worked out at 75%. In addition, the EC50 in data set [2] is 12.6 nM.

Consider `C[C@@H](N[C@H]1CCN(c2ccc(S(=O)(=O)NC(=O)CCC(=O)O)cc2)C1)c1cccc2ccccc12`, for which, in data set [3], the half-life at 10 µM is 630 min. For the same molecule, in data set [1], the %max was determined as 74%. Moreover, in data set [2], the EC50 was 501 nM.

In turn, `C[C@@H](N[C@H]1CCN(c2ccc(C(=O)NCCS(=O)(=O)O)cc2)C1)c1cccc2ccccc12` showed a half-life at 10 µM in data set [3] of 48 min. Also, the %max in data set [1] stood at 85%. The EC50 in data set [2] is 39.8 nM.

As to `C[C@@H](N[C@H]1CCN(c2ccc(C(=O)O)cc2)C1)c1cccc2ccccc12`, in data set [3], the half-life at 10 µM is above 720 min. The %max in data set [1] was 84%. In addition, in data set [2], the EC50 was 158 nM.
